Like-named read-outs stand apart in the source and are kept apart here.
Experiments:
Assay type in all cases: cell-based, mouse
PSEN1/g-secretase = PSEN1/g-secretase (Homo sapiens, UniProt P49768); assay: Ab production in MEFs transfected with C99-3×FLAG (Western blot 82E1); design: expressed in transfected cells; details: 16 hours
Procedure: FIG. 5. Inhibitor dose-effect on Ab production. PSEN1 KO MEFs stably rescued with GFP-PSEN1 and transfected with C99-3×FLAG (6 h) were treated with different concentrations of (A, B) DAPT, or (C) L-685-458 as indicated. After 16 h, condition media and cell lysates were analyzed by Western blot using 82E1 monoclonal antibody to detect AP. Representative blot is shown in […] for DAPT treatment and quantification is shown in (B): mean+SEM, n=3 independent experiments. (C) PSEN1 KO MEFs. Quantification for L-685-458 is shown in (C), n=1.
Based on these new data, it is crucial to compare the sensitivity to g-secretase inhibitors of the g-secretase complex located in the late endosomes (producing intracellular Ab) and the broadly localised g-secretase complex (producing extracellular Ab). We therefore compared the dose-dependencies of translocated PSEN1/g-secretase with catalytic inhibition by DAPT. MEFs were transfected with APP-C99-3×FLAG for 6 hours and treated with different doses of DAPT. After 16 hours, conditioned media and cell lysates were collected and analysed by Western blotting for total secreted and intracellular Ab, respectively. This resulted for DAPT in a lower IC50 for secreted Ab inhibition (FIG. 5A-B).
(§1) Protein concentrations were determined by the Bio-Rad DC protein assay (Bio-Rad). Samples were separated by SDS-PAGE (4-12% Bis-Tris NuPAGE gels in MES running buffer (ThermoFisher Scientific) and transferred onto nitrocellulose membranes (ThermoFisher Scientific). After blocking in 5% non-fat milk, membranes were incubated with primary antibody (4° C., overnight) followed by washing and incubation with horseradish peroxidase (HRP)-conjugated secondary antibodies (1 h, room temperature). After final washing, immunodetection was done using enhanced chemiluminescence (Western Lightning-Plus ECL, PerkinElmer), and immunoreactive protein bands were digitally captured and quantified on a Fuji MiniLAS 3000 imager (Fuji, Dusseldorf, Germany) using Aida Image Analyzer software (Raytest, Germany). Data are represented as mean±SEM of at least three independent experiments.

NCT = assay: Cell surface biotinylation internalization assay, NCT; details: DAPT 1 μM
Procedure: (§2) All reagents, except otherwise stated, were kept on ice. Cells (450.000 cells for 1 h kinetic and 300.000 cells for 16 h) were plated on 6-cm dishes. 48 h after plating, cells were placed on ice, washed in PBS (pH 8) and next incubated in PBS (pH 8) supplemented with 0.25 mg/ml sulfo-NHS-SS-Biotin (Pierce) (10 min at 4° C.). Excess of biotin was washed out with PBS and cells were incubated in quench buffer (0.5% BSA, 100 mM Glycine in PBS) for 15 min at 4° C. Cells were then washed with PBS and incubated at 37° C. in complete pre-warmed medium (with or without DAPT 1 μM) for the appropriate time or kept at 4° C. as a control. Endocytosis was quickly stopped by placing the dishes back on ice and washing the cells with ice-cold PBS. Remaining biotin at the cell surface was cleaved off by incubating the cells twice in PBS containing 100 mM 2-sodium-2-mercaptoethanesulfonate (Sigma) as a reducing agent (15 min at 4° C.). […] Total protein was measured and biotinylated proteins were pulled down from equal amounts of extracts using streptavidin Sepharose beads (Pierce) (4° C., overnight on a rotation wheel). […] To evaluate the internalized pool for each protein to total cell surface, the (R37-R0)/NR*100 ratio for each time point were quantified. For the 16 h time point, the R37/NR*100 were quantified for each condition. […]

transferrin receptor = assay: Cell surface biotinylation internalization assay, transferrin receptor; details: 16 h time point, DAPT 1 μM
Procedure: as §2

g-secretase complex = molecular target: T1, g-secretase complex (Homo sapiens, UniProt P49768); assay: Cadherin CTF and APP CTF accumulation (Western blot); details: FIG. 7 Western blot
T1 construct: expressed in transfected cells
Procedure: Second, of all these compounds, the inhibitory action on g-secretase activity was determined by quantifying the production of the C-terminal fragments (CTF) of Cadherin and APP. Both Cadherin-CTF and APP-CTF accumulate when the enzymatic activity of the g-secretase complex is inhibited. As can be appreciated from the Western blot in FIG. 7, all tested g-secretase inhibitors (C1, C2, C4 and C8) induced the level of Cadherin CTF and APP CTF in contrast to the negative control and the g-secretase stabilizers.
as §1

g-secretase subunits = molecular target: T2, g-secretase subunits (Homo sapiens, UniProt P49768); assay: Expression of g-secretase subunits (Western blot); details: 1 μM DAPT; data not shown
T2 construct: expressed in transfected cells
Procedure: First, in the PSEN1 KO mouse embryonic fibroblasts (MEFs) rescued with EGFP-PSEN1 (see Example 1) the expression of the g-secretase subunits was tested and found not affected by administering any of the 12 compounds, including DAPT that was used as positive control (data not shown).
as §1

IC50 (PSEN1/g-secretase; cell lysates, read-out: IC50 intracellular Ab): 21 nM
IC50 (PSEN1/g-secretase; conditioned media, read-out: IC50 for secreted Ab inhibition): 16 nM
level of APP CTF (g-secretase complex): accumulate
level of Cadherin CTF (g-secretase complex): accumulate
steady state of PSEN1 or PSEN2 protein levels (g-secretase subunits): no measurable effect
SMILES: C[C@H](NC(=O)Cc1cc(F)cc(F)c1)C(=O)N[C@H](C(=O)OC(C)(C)C)c1ccccc1 [DAPT, N—[N-(3,5-difluorophenacetyl)-L-alanyl]-S-phenylglycine t-butyl ester]
internalized NCT (internalization kinetics) (NCT; 5, 10, 30 and 60 min): did not reveal significant differences in internalized NCT
amount of biotinylated NCT pulled down (NCT; 16 h time point): doubling of the amount of biotinylated NCT
biotinylated transferrin receptor pulled down (transferrin receptor): no differences were found

Reference: patent publication US20220397566A1, “GAMMA-SECRETASE STABILIZING COMPOUND SCREENING ASSAY” (VIB VZW, priority 2019, published 2022)
